{
  "source": "patent US20080119567A1",
  "about": "“Methods of use of herbal compositions” (priority 2003, published 2008)",
  "key": {"[1]": {"tested_on": "Helicobacter pylori (clinical isolate strain)", "assay": "Gastric ulceration after Helicobacter pylori inoculation in mice (Example 11)", "format": "in vivo, ICR derived mice", "settings": "24.5 ml/kg × 2 × 7 PO (text: 24.5 mg/kg)", "description": "Seven groups of 5 male ICR derived mice weighing 24±2 grams were fasted for 18 hours before the intragastric inoculation of Helicobacter pylori (clinical isolate strain) in suspension at 1.5×10^9 CFU/0.4 ml/mouse. […] Subsequently, test substances and vehicle were each administered orally twice daily (9:00 A.M. and 16:00 P.M.) for […]. omeprazole 1 mg/kg and clarithromycin 10 mg/kg in combination was used as a positive control agent and was administered orally to test animals once daily (9:00 A.M.) for 7 consecutive days. Seven days after infection, on day eight, all animals with overnight fasting were sacrificed and the stomachs were dissected along the greater curvature. Gastric ulceration was scored at four levels according to the degree of hemorrhage and the severity of ulcerative lesions: 0=normal appearance, 1=mild red spots, 2=moderate red spots and/or hemorrhage spots, 3=marked hemorrhage spots. Reduction of concurrent vehicle control score values by 50 percent or more (≧50%) is considered significant. Test substances and vehicle control (2% TWEEN 80® in 0.9% NaCl solution) were each administered orally to test animals twice daily for 7 consecutive days. The Helicobacter pylori (1.5×10^9 CFU/0.4 ml/mouse) inoculation was applied one hour before the first dosing on day 1. […]"}, "[2]": {"assay": "Pharmacokinetics study of intravenous injection with and without geranium oil", "format": "in vivo, mice"}, "H. pylori (ATCC 43504)": {"tested_on": "H. pylori (ATCC 43504)", "assay": "Minimum inhibitory concentration by agar dilution method", "format": "cell-based, Helicobacter pylori", "parameters": "key: scored positive (+) for inhibition/eradication of colonies growth; negative (−) for no effect upon growth colonies", "settings": "0.3 μg/ml; 37° C., 72 hours, n=2", "description": "Minimum inhibitory concentration is determined by the agar dilution method. 2 mg of test substance, composition of geranium oil and extracts from S. flavescenes prepared for injections (MIC-1), is dissolved and serially diluted in solvent (distilled water) to desired stock concentrations. For each concentration tested, a 10 μl aliquot is added to a 48-well plate containing 0.99 ml of Columbia agar base supplemented with 7% defibrinated rabbit blood. The inoculum of H. pylori (ATCC 43504) is prepared by suspending in brain heart infustion broth to a density of 5×10^8 CFU/ml. A multiprong-incubating device is used to place approximately 5×10^5 CFU/ml per spot onto the containing agent media. […] The plates are incubated at 37° C. for 72 hours in the microaerophilic condition (mixed gas N2 85%, CO2 10%, and O2 5%) and then visually examined and scored positive (+) for inhibition/eradication of colonies growth or negative (−) for no effect upon growth colonies. […] Each concentration is evaluated in duplicate.\nMinimum inhibitory concentration is determined by the agar dilution method. […] The plates are incubated at 37° C. for 72 hours in the microaerophilic condition (mixed gas N2 85%, CO2 10%, and O2 5%) and then visually examined and scored positive (+) for inhibition/eradication of colonies growth or negative (−) for no effect upon growth colonies. […] Each concentration is evaluated in duplicate. […]"}},
  "note": "Several values for one entry are separate records, joined by “and”; a condition that tells them apart may be missing. Equal values may be shown once.",
  "data": [
    {"compound": "CC(C)=CCCC(C)CCO", "note": "(centres unmarked) [MIC-20, citronellol]", "values": [
      {"measurement": "Ulceration Score Total", "setting": "[1]; N=5", "result": 3},
      {"measurement": "Ulceration Score Individual", "setting": "[1]; mice 1-5, score 0-3", "result": "0 (3×) and 2 and 1"}
    ]},
    {"compound": "O=C1CCC[C@@H]2[C@H]3CCCN4CCC[C@@H](CN12)[C@@H]34", "note": "[matrine]", "values": [
      {"measurement": "effect of addition of geranium oil on absorption and metabolism (HPLC peak areas over time)", "setting": "[2]; intravenous injection, mice, with geranium oil vs alone", "result": "increase the absorption and metabolism"}
    ]},
    {"compound": "O=C1CCC[C@@H]2[C@H]3CCC[N+]4([O-])CCC[C@@H](CN12)[C@@H]34", "note": "(some centres unmarked) [oxymatrine]", "values": [
      {"measurement": "effect of addition of geranium oil on absorption and metabolism (HPLC peak areas over time)", "setting": "[2]; mouse, in vivo, iv", "result": "increase the absorption and metabolism"}
    ]},
    {"compound": "gentamicin", "values": [
      {"measurement": "Result (inhibition/eradication of colonies growth)", "setting": "H. pylori (ATCC 43504)", "result": "+"}
    ]}
  ]
}
